Entries after “also recorded” stand apart in the source; their conditions may differ.

One data set deals with Human dermal fibroblasts. The data set can be described thus: TNFα-induced gene expression in dermal fibroblasts (QPCR). Particulars: 30 hr. The data set is classed as cell-based. As for the experimental part: Human dermal fibroblasts were grown in regular culture media as described in example 23 above and seeded in 12-well plates at 2×10^5 cells per well for overnight. Cells were then replenished with fresh medium and treated with TNFα (10 ng/ml) with and without NRH (200 μM) for 30 hr. At the end of the incubation, cells were washed once with HBSS with Ca^2+ and Mg^2+ (Life Technologies), and subject to RNA isolation and QPCR analyses.

Data set [1] has as its system Reconstructed human epidermis (EpiDerm, EPI-200). The data set can be described thus: UVB-induced inflammation mediators in reconstructed epidermal equivalents. The data set is classed as cell-based. The conditions noted are these: topical 1 hr pre-treatment, NRH 0.1% or niacinamide 3%; UVB 150 mJ/cm^2; media 6 hr post irradiation. The text has this:
Solar Ultraviolet (UV) light exposure on skin causes photoaging, sunburn, DNA damages and carcinogenesis. UV radiation (UVR) also results in inflammation, which can be measured in vitro by pro-inflammatory mediators, e.g., TNF-α, IL-8. The in vitro reconstructed human epidermis (RHE) model is used to evaluate the anti-inflammatory effect of NRH.
Reconstructed human epidermis (EpiDerm, EPI-200, made of normal human epidermal keratinocytes, MatTek, Ashland, Mass.), were placed into media (EPI-100-ASY, 1.0 ml/well of 6-well plates) and incubated overnight at 37° C./5% CO2. The media was replenished with fresh culture media prior to study. NRH at 0.1% and niacinamide at 3% in vehicle (50% H2O/35% ethanol/15% propylene glycol, v/v/v) were applied topically at 6 μl and then gently spread onto the skin equivalents (˜20 rotations) using the rubber side of a plunger of 1 ml syringe. Vehicle was served as an untreated control. After 1 hr pre-treatment with NRH, niacinamide, or vehicle control, the EpiDerm tissues were transferred to a sterile 6-well plate containing 1 ml of DPBS per well and then exposed to UVB at 150 mJ/cm^2. The Newport Solar Simulator System (Power unit 69920, and Lamp 91192-1000, Newport Corporate, Irvine, Calif.) was used as the UVB emitter to achieve a UVB irradiation of 150 mJ/cm^2. Measurement of the irradiation was taken using an ILT-1400 Handheld, Portable Radiometer/Photometer (International Light Technologies, Inc., Peabody, Mass.) with a UVB detector (SEL240/T2ACT5, 235-307 nm, International Light Technologies, Inc.). After UVB irradiation, EpiDerm tissues were transferred back to the 6-well plate containing media and incubated at 37° C./5% CO2 for 6 hours. At the end of the incubation (6 hr post UVB irradiation), culture media were collected for the measurement of IL-8, and TNF-α concentration by MagPix (Millipore, HCYTOMAG-60K).

Data set [2] has as its system Human primary dermal fibroblasts (HDFa). The data set can be described thus: Intracellular NAD measurement in human primary dermal fibroblasts. The data set is classed as cell-based. The conditions noted are these: different concentrations, 3 hrs, absorbance at 405 nm. The method, then:
Human primary dermal fibroblasts derived from adult human skins (HDFa, Life technologies, Grand Island, N.Y., Passage 2-4) were grown in Medium 106 (Life Technologies) supplemented with Low Serum Growth Supplement (LSGS) (Life Technologies) and seeded in 12-well plates with density at 2×10^5 cells per well and 2 ml of culture medium in each well.
Stock solution of dihydronicotinamide riboside (NRH, GSK3008320A, GSK, RTP, NC) was prepared in ethanol at 100 mM (25.6 mg/ml) and stored at −20° C. Cells were treated with different concentrations of NRH for 3 hrs, washed twice with PBS containing 5 mM EDTA, and then subject to Nicotinamide adenine dinucleotide (NAD) measurement. In brief, acetonitrile (ACN) lysis buffer (Ammonium Acetate (50 mM) and 90% acetonitrile) was added to each well (200 μl/well) to lyse the cells at RT for 5-10 mins by gently rotating on a culture plate shaker at a low speed. […] At the end of incubation, the supernatant (200 μl) of the reaction solution from each well was transferred to each well of a 96-well plate and absorbance was read twice in the 96-well plate at 405 nm using a plate reader (Spectra Maxplus, Molecular Devices, Sunnyvale, Calif.). […]

Data set [3] can be described thus: Gravimetric Vapor Sorption (GVS). The data set is classed as physicochemical. In a few lines:
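Samples dried under nitrogen 5 h at 25 °C, then sorption ramp from 5% to 95% or 90% RH and desorption back to 5% or 10% RH, all at 25 °C. Each RH step held 4 h; mass change by microbalance.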

Regarding `NC(=O)C1=CN([C@@H]2O[C@H](CO)[C@@H](O)[C@H]2O)C=CC1` [NRH, dihydronicotinamide riboside], in the data set on Human dermal fibroblasts (NRH 200 μM), the “basal COX-2 gene expression” value is listed as “reduced” and the “expression level of NRF2” value is “slightly increased”. For the same molecule, the “TNF-α-induced COX-2 gene expression” value in the data set on Human dermal fibroblasts (TNFα 10 ng/ml with NRH 200 μM) is given as “reduced”. For the same molecule, in data set [1], the “UVB-induced IL-8” value is listed as “inhibited; also recorded: reduces” and the “UVB-induced TNF-α” value was “inhibited; also recorded: reduces”. Further, in data set [2], the NAD level result is “dose-dependently increases NAD; also recorded: dose-dependently increases NAD^+”. Also, the GVS weight gain result in data set [3] (90% RH, 25° C., after drying) was “greater than 60 % w/w”. The “hygroscopicity by GVS” value in data set [3] (GVS isotherm 25° C.) is “hygroscopic”.
